In brackets after ≈: the same amount, converted by molar mass. Read-outs that look alike come from different tables or passages of the source. Marks after values point to notes of the source that are not given here.
Tests used:
[1] = test system: S. aureus ATCC 25923; experiment: MIC by serial dilutions in broth (visible growth); format: cell-based;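 further: broth tubes inoculated at about 5×10^5 CFU/ml, incubated 16-24 h at 35 °C in air, growth judged by transmitted light against an unexposed refrigerated inoculum tube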
Method: (§3) The minimum inhibitory concentration (MIC) and minimum bactericidal concentration (MBC) of the antibacterial composition enriched for the light isotope zinc ^64Zne was evaluated in the experiment. […] S. aureus ATCC 25923, E. coli ATCC 25922 and P. aeruginosa ATCC 27853 were used as test cultures.
(§4) The studies were carried out using the method of serial dilutions in broth. To determine sensitivity of microorganisms to the antibacterial composition, 0.5 ml of broth was placed into each tube. The number of tubes was determined based on the desired number of dilutions and was increased by one for the “negative” control (no test composition). Series of two-fold serial dilutions of the test variants of the antibacterial composition were used and concentrations ranging from 450 mcg ^64Zne/ml to 0.000107 mcg ^64Zne/ml were obtained.
(§5) Reference test strains of S. aureus ATCC 25923, E. coli ATCC 25922 and P. aeruginosa ATCC 27853 were incubated in Mueller-Hinton liquid broth at 37° C. for 24 hours. Standard bacterial suspension equivalent to 0.5 McFarland standard diluted 100-fold with the broth was used for the inoculation of the tubes after which the concentration of microorganism in it was approximately 10^6 CFU/ml.
(§6) 0.5 ml of inoculum was added to each tube containing 0.5 ml of the appropriate dilution of a solution of the ^64Zn-enriched salt of interest. […] The final concentration of the microorganism in each tube was approximately 5×10^5 CFU/ml.
(§7) The tubes were incubated at 35° C. in air for 16-20 or 20-24 hours (depending on the bacterial strain).
(§8) To determine the presence of microorganism growth the test tubes with inoculum were viewed under transmitted light. Transmitted light was measured by spectrophotometry. The growth of culture in the presence of antibacterial compositions based on ^64Zne was compared with the reference test tube (“negative” control), containing the original inoculum and stored in the refrigerator. The MIC was determined as the lowest concentration of ^64Zne that inhibits visible growth of the microorganism. Both gram-positive (S. aureus) and gram-negative bacteria (P. aeruginosa, E. coli) were used in the experiments described below.
(§9) That is, ^64Zne in the form of a salt was compared with a composition that contains zinc with a natural distribution of isotopes. […] Relevant samples containing salt of natural zinc with EDDA and natural zinc sulfate were used for the comparison.
(§10) The following commercial antibacterial medications were used for the study: azithromycin and ceftriaxone and norfloxacin. The initial concentration of 3000 mcg/ml was used for the samples of all the above compounds. […] Serial dilutions of the above antibacterial compounds were also prepared in the same way as for the antibacterial composition of the invention. The same pathogenic strains of S. aureus ATCC 25923, E. coli ATCC 25922, P. aeruginosa ATCC 27853 were used for the study.

[2] = test system: E. coli ATCC 25922; experiment: MIC by serial dilutions in broth (visible growth); format: cell-based;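 further: broth tubes inoculated to about 5×10^5 CFU/ml, incubated at 35 °C for 16-24 h, growth judged by transmitted light versus an untreated inoculum reference tube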
Method: as §3, §4, §5, §6, §7, §8, §9, §10

[3] = test system: E. coli ATCC 25922; experiment: MBC by plating tube contents on Mueller-Hinton medium; format: cell-based
Method: (§1) To evaluate the bactericidal action of the antibacterial composition based on light isotope ^64Zne the minimum bactericidal concentration (MBC) was determined by plating out 0.1 ml of the contents of each tube containing the antibacterial composition on Mueller-Hinton medium. The incubation was at 37° C. for 24 h.
(§2) The MBC of the test samples was determined as the lowest concentration at which there was no growth on Mueller-Hinton agar medium.

[4] = test system: P. aeruginosa ATCC 27853; experiment: as above; format: cell-based
Method: as §1, §2

[5] = test system: S. aureus ATCC 25923; experiment: as above; format: cell-based
Method: as §1, §2

[6] = test system: P. aeruginosa ATCC 27853; experiment: MIC by serial dilutions in broth (visible growth)
Method: as §3, §4, §5, §6, §7, §8, §9, §10

[7] = Table 7, ^64Zne vs natural zinc
[8] = concentration of ^64Zne, Tables 1-5
[9] = Table 8, ^64Zne vs natural zinc

CC[C@H]1OC(=O)[C@H](C)[C@@H](O[C@H]2C[C@@](C)(OC)[C@@H](O)[C@H](C)O2)[C@H](C)[C@@H](O[C@@H]2O[C@H](C)C[C@H](N(C)C)[C@H]2O)[C@](C)(O)C[C@@H](C)CN(C)[C@H](C)[C@@H](O)[C@]1(C)O [azithromycin, reference compound]
MIC ([1]; Staphylococcus aureus, ATCC25923, Table 9, commercial antibacterial agents, read-out: MIC): 188 µg/mL (≈ 250 µM)
MIC ([2]; Escherichia coli, ATCC25922, Table 9, commercial antibacterial agents, read-out: MIC): 1500 µg/mL (≈ 2000 µM)
MBC ([3]; Escherichia coli, ATCC25922, Table 10, commercial antibacterial agents, read-out: MBC): < 1500 µg/mL
MBC ([4]; Pseudomonas aeruginosa, ATCC27853, Table 10, commercial antibacterial agents, read-out: MBC): < 1500 µg/mL
MBC ([5]; Staphylococcus aureus, ATCC25923, Table 10, commercial antibacterial agents, read-out: MBC): < 1500 µg/mL
MIC ([6]; Pseudomonas aeruginosa, ATCC27853): 1500 µg/mL (≈ 2000 µM)

NC(CC(=O)[O-])C(=O)[O-].[64Zn+2] (racemic) [^64Zne aspartate]
MBC ([3]; Table 6): 0.73* mcg ^64Zne/ml
MBC ([4]; Table 6): >750 mcg ^64Zne/ml
MBC ([5]; Table 6): 0.023* mcg ^64Zne/ml

O=C([O-])CC(NCCNC(CC(=O)O)C(=O)O)C(=O)[O-].[64Zn+2] (stereo not drawn) [^64Zne EDDS, ^64Zne salt of ethylenediamine-N,N′-disuccinic acid, chemical name 2-[2-[[(1)-1-carboxy-2-carboxylatoethyl]amino]ethylamino]butanedioate]
MIC [1, 7]: 0.73 zinc/ml
visible growth ([1]; ^64Zne 0.00036 mcg/ml): +
visible growth ([1]; ^64Zne 0.00072 mcg/ml): +
visible growth ([1]; ^64Zne 0.0014 mcg/ml): +
visible growth ([1]; ^64Zne 0.0029 mcg/ml): +
visible growth ([1]; ^64Zne 0.0057 mcg/ml): +
visible growth ([1]; ^64Zne 0.011 mcg/ml): +
visible growth ([1]; ^64Zne 0.023 mcg/ml): +
visible growth ([1]; ^64Zne 0.046 mcg/ml): +
visible growth ([1]; ^64Zne 0.37 mcg/ml): −
visible growth ([1]; ^64Zne 0.73 mcg/ml): −
visible growth ([1]; ^64Zne 1.46 mcg/ml): −
visible growth ([1]; ^64Zne 2.93 mcg/ml): −
visible growth ([1]; ^64Zne 5.86 mcg/ml): −
visible growth ([1]; ^64Zne 11.72 mcg/ml): −
visible growth ([1]; ^64Zne 23.44 mcg/ml): −
visible growth ([1]; ^64Zne 46.88 mcg/ml): −
visible growth ([1]; ^64Zne 93.75 mcg/ml): −
visible growth ([1]; ^64Zne 187.5 mcg/ml): −
visible growth ([1]; ^64Zne 375 mcg/ml): −
visible growth ([1]; ^64Zne 750 mcg/ml): −
MIC [1, 8]: 0.366 µg/mL
MIC [2, 7]: 0.18 zinc/ml
visible growth ([2]; ^64Zne 0.00036 mcg/ml): +
visible growth ([2]; ^64Zne 0.00072 mcg/ml): +
visible growth ([2]; ^64Zne 0.0014 mcg/ml): +
visible growth ([2]; ^64Zne 0.0029 mcg/ml): +
visible growth ([2]; ^64Zne 0.0057 mcg/ml): +
visible growth ([2]; ^64Zne 0.011 mcg/ml): +
visible growth ([2]; ^64Zne 0.023 mcg/ml): −
visible growth ([2]; ^64Zne 0.046 mcg/ml): −
visible growth ([2]; ^64Zne 0.092 mcg/ml): −
visible growth ([2]; ^64Zne 0.18 mcg/ml): −
visible growth ([2]; ^64Zne 0.37 mcg/ml): −
visible growth ([2]; ^64Zne 0.73 mcg/ml): −
visible growth ([2]; ^64Zne 1.46 mcg/ml): −
visible growth ([2]; ^64Zne 2.93 mcg/ml): −
visible growth ([2]; ^64Zne 5.86 mcg/ml): −
visible growth ([2]; ^64Zne 11.72 mcg/ml): −
visible growth ([2]; ^64Zne 23.44 mcg/ml): −
visible growth ([2]; ^64Zne 46.88 mcg/ml): −
visible growth ([2]; ^64Zne 93.75 mcg/ml): −
visible growth ([2]; ^64Zne 187.5 mcg/ml): −
visible growth ([2]; ^64Zne 375 mcg/ml): −
visible growth ([2]; ^64Zne 750 mcg/ml): −
visible growth ([2]; ^64Zne 1500 mcg/ml): −
MIC [2, 8]: 0.0229 µg/mL
MBC ([3]; Table 6): 2.93* mcg ^64Zne/ml
MBC [3, 9]: 2.9296 mcg zinc/ml
bactericidal activity (in words) [4]: satisfactory bactericidal activity
MBC ([4]; Table 6): 375 mcg ^64Zne/ml
MBC [4, 9]: 375 mcg zinc/ml
MBC ([5]; Table 6): 0.73* mcg ^64Zne/ml
MBC [5, 9]: 0.7324 mcg zinc/ml
bacteriostatic activity (in words) [6]: best results
MIC [6, 7]: 5.86 zinc/ml
MIC [6, 8]: 1.465 µg/mL

O=S(=O)([O-])[O-].[Zn+2] [Natural zinc - sulfate, natural zinc sulfate, reference compound]
MIC [1, 7]: 93.75 zinc/ml
MIC [2, 7]: 187.5 zinc/ml
MBC [3, 9]: >750 mcg zinc/ml
MBC [4, 9]: >750 mcg zinc/ml
MBC [5, 9]: >750 mcg zinc/ml
MIC [6, 7]: 750 zinc/ml

Source: patent US12097215B2, “Antibacterial composition and its use in treating bacterial infections” (Vector Vitale IP LLC, priority 2017, dated 2024)
